In patent publication US20110086759A1, “CHEMICAL COMPOUNDS” (SYNGENTA CROP PROTECTION, INC., priority 2007, published 2011):

Tests used:
Format in all cases: in vivo
[1] = tested on: Alopecurus myosuroides (ALOMY); assay: Pre-emergence biological efficacy, glasshouse pot test; conditions: 312 h
Summary of the method: (§1)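 Seeds sown in standard soil in pots, held one day in glasshouse (24/16 °C day/night, 14 h light, 65% humidity), then sprayed with aqueous solution from acetone/water (50:50) formulation with 0.5% Tween 20 at 1000 or 250 g/ha. Damage scored after 13 days (0 = none, 100 = total).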

[2] = tested on: Amaranthus retoflexus (AMARE); assay: as above; conditions: Amaranthus retroflexus, 312 h
Summary of the method: as §1

[3] = tested on: Echinochloa crus-galli (ECHCG); assay: as above; conditions: 312 h
Summary of the method: as §1

[4] = tested on: Ipomea hederaceae (IPOHE); assay: as above; conditions: Ipomoea hederacea, 312 h
Summary of the method: as §1

[5] = tested on: Setaria faberi (SETFA); assay: as above; conditions: 312 h
Summary of the method: as §1

[6] = tested on: Solanum nigrum (SOLNI); assay: as above; conditions: 312 h
Summary of the method: as §1

[7] = tested on: Alopecurus myosuroides (ALOMY); assay: Post-emergence biological efficacy, glasshouse pot test; conditions: 312 h
Summary of the method: (§2)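 Plants were sown in standard soil and grown 8 days in a glasshouse (24/16° C. day/night, 14 hours light, 65% humidity), then sprayed post-emergence at 1000 or 250 g/ha from acetone/water (50:50) with 0.5% Tween 20. Damage was scored visually after 13 days (0 = none, 100 = total).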

[8] = tested on: Amaranthus retoflexus (AMARE); assay: as above; conditions: Amaranthus retroflexus, 312 h
Summary of the method: as §2

[9] = tested on: Echinochloa crus-galli (ECHCG); assay: as above; conditions: 312 h
Summary of the method: as §2

[10] = tested on: Ipomea hederaceae (IPOHE); assay: as above; conditions: Ipomoea hederacea, 312 h
Summary of the method: as §2

[11] = tested on: Setaria faberi (SETFA); assay: as above; conditions: 312 h
Summary of the method: as §2

[12] = tested on: Solanum nigrum (SOLNI); assay: as above; conditions: 312 h
Summary of the method: as §2

[13] = pre-emergence, rate 1,000 g/ha, evaluated after 13 days (100=total damage to plant; 0=no damage), read-out: Percentage damage caused to weed species, ALOMY
[14] = pre-emergence, rate 1,000 g/ha, evaluated after 13 days (100=total damage to plant; 0=no damage), read-out: Percentage damage caused to weed species, AMARE
[15] = pre-emergence, rate 1,000 g/ha, evaluated after 13 days (100=total damage to plant; 0=no damage), read-out: Percentage damage caused to weed species, ECHCG
[16] = pre-emergence, rate 1,000 g/ha, evaluated after 13 days (100=total damage to plant; 0=no damage), read-out: Percentage damage caused to weed species, IPOHE
[17] = pre-emergence, rate 1,000 g/ha, evaluated after 13 days (100=total damage to plant; 0=no damage), read-out: Percentage damage caused to weed species, SETFA
[18] = pre-emergence, rate 1,000 g/ha, evaluated after 13 days (100=total damage to plant; 0=no damage), read-out: Percentage damage caused to weed species, SOLNI
[19] = Rate 1,000 g/ha, post-emergence spray, evaluated after 13 days (100=total damage to plant; 0=no damage to plant), read-out: Percentage damage caused to weed species, post-emergence, ALOMY
[20] = Rate 1,000 g/ha, post-emergence spray, evaluated after 13 days (100=total damage to plant; 0=no damage to plant), read-out: Percentage damage caused to weed species, post-emergence, AMARE
[21] = Rate 1,000 g/ha, post-emergence spray, evaluated after 13 days (100=total damage to plant; 0=no damage to plant), read-out: Percentage damage caused to weed species, post-emergence, ECHCG
[22] = Rate 1,000 g/ha, post-emergence spray, evaluated after 13 days (100=total damage to plant; 0=no damage to plant), read-out: Percentage damage caused to weed species, post-emergence, IPOHE
[23] = Rate 1,000 g/ha, post-emergence spray, evaluated after 13 days (100=total damage to plant; 0=no damage to plant), read-out: Percentage damage caused to weed species, post-emergence, SETFA
[24] = Rate 1,000 g/ha, post-emergence spray, evaluated after 13 days (100=total damage to plant; 0=no damage to plant), read-out: Percentage damage caused to weed species, post-emergence, SOLNI
[25] = pre-emergence, 1,000 g/ha, evaluated after 13 days (100=total damage; 0=no damage), read-out: Percentage damage ALOMY
[26] = pre-emergence, 1,000 g/ha, evaluated after 13 days (100=total damage; 0=no damage), read-out: Percentage damage AMARE
[27] = pre-emergence, 1,000 g/ha, evaluated after 13 days (100=total damage; 0=no damage), read-out: Percentage damage ECHCG
[28] = pre-emergence, 1,000 g/ha, evaluated after 13 days (100=total damage; 0=no damage), read-out: Percentage damage IPOHE
[29] = pre-emergence, 1,000 g/ha, evaluated after 13 days (100=total damage; 0=no damage), read-out: Percentage damage SETFA
[30] = pre-emergence, 1,000 g/ha, evaluated after 13 days (100=total damage; 0=no damage), read-out: Percentage damage SOLNI
[31] = post-emergence, 1,000 g/ha, evaluated after 13 days (100=total damage; 0=no damage), read-out: Percentage damage caused to weed species, ALOMY
[32] = post-emergence, 1,000 g/ha, evaluated after 13 days (100=total damage; 0=no damage), read-out: Percentage damage caused to weed species, AMARE
[33] = post-emergence, 1,000 g/ha, evaluated after 13 days (100=total damage; 0=no damage), read-out: Percentage damage caused to weed species, ECHCG
[34] = post-emergence, 1,000 g/ha, evaluated after 13 days (100=total damage; 0=no damage), read-out: Percentage damage caused to weed species, IPOHE
[35] = post-emergence, 1,000 g/ha, evaluated after 13 days (100=total damage; 0=no damage), read-out: Percentage damage caused to weed species, SETFA
[36] = post-emergence, 1,000 g/ha, evaluated after 13 days (100=total damage; 0=no damage), read-out: Percentage damage caused to weed species, SOLNI

Row | Structure (SMILES) | pest or weed control at 1000 g/ha [1, 13] [%] | pest or weed control at 1000 g/ha [2, 14] [%] | pest or weed control at 1000 g/ha [3, 15] [%] | pest or weed control at 1000 g/ha [4, 16] [%] | pest or weed control at 1000 g/ha [5, 17] [%] | pest or weed control at 1000 g/ha [6, 18] [%] | pest or weed control at 1000 g/ha [7, 19] [%] | pest or weed control at 1000 g/ha [8, 20] [%] | pest or weed control at 1000 g/ha [9, 21] [%] | pest or weed control at 1000 g/ha [10, 22] [%] | pest or weed control at 1000 g/ha [11, 23] [%] | pest or weed control at 1000 g/ha [12, 24] [%] | pest or weed control at 1000 g/ha [1, 25] [%] | pest or weed control at 1000 g/ha [2, 26] [%] | pest or weed control at 1000 g/ha [3, 27] [%] | pest or weed control at 1000 g/ha [4, 28] [%] | pest or weed control at 1000 g/ha [5, 29] [%] | pest or weed control at 1000 g/ha [6, 30] [%] | pest or weed control at 1000 g/ha [7, 31] [%] | pest or weed control at 1000 g/ha [8, 32] [%] | further results
1 | C=CCN(Cc1ccc(Cl)s1)c1nc(C2CC2)nc(C(=O)OC)c1Cl [Compound 151-141, 5-Chloro-4-[N-(5-chlorothiophen-2-ylmethyl)-N-prop-2-en-1-yl-amino]-2-cyclopropyl-6-methoxycarbonyl-pyrimidine] | 10 | 50 | 0 | 40 | 0 | 0 | 10 | 40 | 10 | 70 | 60 | 40 | – | – | – | – | – | – | – | – | –
2 | COc1c(Cl)ccc(-c2nc(NCc3ccco3)c(Cl)c(C(=O)O)n2)c1F [Compound 109-125, 5-Chloro-2-(4-chloro-2-fluoro-3-methoxyphenyl)-4-(furan-2-yl-methyl-amino)pyrimidine-6-carboxylic acid] | 70 | 100 | 90 | 100 | 90 | 100 | 70 | 100 | 80 | 100 | 90 | 90 | – | – | – | – | – | – | – | – | –
3 | COC(=O)c1nc(C2CC2)nc(NCCCc2cccnc2)c1Cl [Compound 4-251, 5-Chloro-2-cyclopropyl-6-methoxycarbonyl-4-[3-(pyrid-3-yl)propylamino]-pyrimidine] | – | – | – | – | – | – | – | – | – | – | – | – | 0 | 40 | 0 | 20 | 0 | 20 | 10 | 100 | pest or weed control at 1000 g/ha [9, 33]: 40%; pest or weed control at 1000 g/ha [10, 34]: 50%; pest or weed control at 1000 g/ha [11, 35]: 50%; pest or weed control at 1000 g/ha [12, 36]: 80%
4 | CCCCN(Cc1ccccc1)c1nc(C2CC2)nc(C(=O)OC)c1Cl [Compound 147-60, 4-(N-But-1-yl-N-phenylmethyl-amino)-5-chloro-2-cyclopropyl-6-methoxycarbonyl-pyrimidine] | 40 | 100 | 20 | 30 | 0 | 80 | 10 | 70 | 10 | 80 | 40 | 80 | – | – | – | – | – | – | – | – | –
5 | COC(=O)c1nc(C2CC2)nc(N(C)Cc2ccc(C(F)(F)F)cc2)c1Cl [Compound 5-77, 5-Chloro-2-cyclopropyl-6-methoxycarbonyl-4-[N-methyl-N-(4-trifluoromethyl-phenyl)methyl-amino]pyrimidine] | 0 | 90 | 0 | 20 | 0 | 20 | 20 | 100 | 40 | 100 | 50 | 100 | – | – | – | – | – | – | – | – | –
6 | COC(=O)c1nc(C2CC2)nc(N[C@H](CO)CSCc2ccccc2)c1Cl [4-276 (R), 5-Chloro-2-cyclopropyl-4-[(1R)-1-hydroxymethyl-2-phenylmethylthio-ethylamino]-6-methoxycarbonyl-pyrimidine] | – | – | – | – | – | – | – | – | – | – | – | – | 20 | 100 | 30 | 80 | 30 | 90 | 20 | 100 | pest or weed control at 1000 g/ha [9, 33]: 30%; pest or weed control at 1000 g/ha [10, 34]: 40%; pest or weed control at 1000 g/ha [11, 35]: 40%; pest or weed control at 1000 g/ha [12, 36]: 80%
7 | COC(=O)c1nc(C2CC2)nc(N(C)Cc2ccccc2F)c1Cl [Compound 5-64, 5-Chloro-2-cyclo-propyl-4-[N-(2-fluorophenylmethyl)-N-methyl]-6-methoxy-carbonylpyrimidine] | 10 | 70 | 20 | 80 | 10 | 70 | 20 | 100 | 80 | 100 | 90 | 90 | – | – | – | – | – | – | – | – | –
8 | COC(=O)c1nc(C2CC2)nc(NCC(O)COc2ccc(Cl)cc2)c1Cl (stereo not drawn) [Compound 4-264, 5-Chloro-4-[3-(4-chlorophenoxy)-2-hydroxy-propylamino]-2-cyclopropyl-6-methoxycarbonyl-pyrimidine] | – | – | – | – | – | – | – | – | – | – | – | – | 40 | 80 | 60 | 90 | 80 | 90 | 30 | 100 | pest or weed control at 1000 g/ha [9, 33]: 50%; pest or weed control at 1000 g/ha [10, 34]: 60%; pest or weed control at 1000 g/ha [11, 35]: 70%; pest or weed control at 1000 g/ha [12, 36]: 100%
9 | O=C(O)c1nc(C2CC2)nc(NC2CCCC2)c1Cl [Compound 1-33, 5-Chloro-2-cyclopropyl-4-cyclopentylamino-pyrimidine-6-carboxylic acid] | – | – | – | – | – | – | – | – | – | – | – | – | 30 | 80 | 30 | 70 | 50 | 80 | 30 | 100 | pest or weed control at 1000 g/ha [9, 33]: 20%; pest or weed control at 1000 g/ha [10, 34]: 70%; pest or weed control at 1000 g/ha [11, 35]: 80%; pest or weed control at 1000 g/ha [12, 36]: 80%
